Several values for one entry are separate records, joined by “and”; a condition that tells them apart may be missing. Identical values can stand only once.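 Step 1: Grow cells in 96-well plates. Step 2: Expose to compound for 48 hours at 5 concentrations. Step 3: Interpolate endpoints linearly; if unreached, use highest concentration. Here, GI50 denotes the concentration required for 50% inhibition of growth. TGI denotes the concentration required for complete inhibition of growth.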
Columns and labels:
Assay in all cases: growth of human tumour cells (NCI), 48 h
[1] = tested on: HCC-2998 colon
[2] = tested on: K-562 leukemia
[3] = tested on: HCT-15 colon
[4] = tested on: RPMI-8226 leukemia
[5] = tested on: TK-10 renal
[6] = tested on: U251 CNS
[7] = tested on: NCI-H226 lung
[8] = tested on: SF-295 CNS
[9] = tested on: SF-539 CNS
[10] = tested on: RXF 393 renal

Row | SMILES | GI50 [1] | TGI [1] | GI50 [2] | TGI [2] | GI50 [3] | TGI [3] | GI50 [4] | TGI [4] | GI50 [5] | TGI [5] | GI50 [6] | TGI [6] | GI50 [7] | TGI [7] | GI50 [8] | TGI [8] | GI50 [9] | TGI [9] | GI50 [10] | TGI [10]
1 | NCc1ccc(-n2c(-c3nonc3N)nc3cnccc32)cc1 | 23.8 µM | > 25 µM | > 25 µM | > 25 µM | 6.85 µM | > 25 µM | > 23.2 µM | > 25 µM | 0.385 µM | > 25 µM | 8.94 µM | > 25 µM | 0.912 µM | > 25 µM | 16 µM | > 25 µM | 2.57 µM | > 23.6 µM | 1.76 µM | 11.3 µM
2 | Fc1ccc(Nc2nc(NCCNc3ccnc4cc(Cl)ccc34)nc(N3CCOCC3)n2)cc1 | 2 µM | 3.95 µM | 2.91 µM | 10.3 µM | 2.46 µM | 6.56 µM | 3.15 µM | 14.6 µM | 10.3 µM | 22.7 µM | 4.72 µM | 17.5 µM | 14.4 µM | 33.4 µM | 4.19 µM | 15.3 µM | 3.79 µM | 15.2 µM | 1.89 µM | 6.76 µM
3 | O=C1c2ccccc2C(=O)C1C(c1ccc([N+](=O)[O-])cc1)C1C(=O)c2ccccc2C1=O |  | > 100 µM |  | > 100 µM |  | > 100 µM |  | > 100 µM |  | > 100 µM |  | > 100 µM |  | > 100 µM |  | > 100 µM |  | > 100 µM |  | 32.9 µM
4 | CC(=O)Oc1ccccc1C(=O)C1c2cccc(O)c2C(=O)c2c(O)cccc21 |  | 6.5 µM |  | > 100 µM |  | 9.56 µM |  | 2.48 µM |  | 15.4 µM |  | 1.99 µM |  | 3.7 µM |  | 2.65 µM |  | 1.94 µM |  | 1.46 µM
5 | COC(=O)C(Cc1nc2ccc(Cl)cc2[nH]c1=O)C(=O)C(=O)Nc1ccccc1[N+](=O)[O-] (stereo unspecified) |  | > 100 µM |  | > 100 µM |  | > 100 µM |  | > 100 µM |  | > 100 µM |  | > 100 µM |  | > 100 µM |  | > 100 µM |  | > 100 µM |  | > 100 µM
6 | CCO[C@@H]1C2C=CC(C2)[C@H]1[N+](=O)[O-] (stereo partly specified) |  | > 100 µM |  | > 100 µM |  | > 100 µM |  | > 100 µM |  | > 100 µM |  | > 100 µM |  | > 100 µM |  | > 100 µM |  | > 100 µM |  | > 100 µM
7 | Cc1cccc(C)c1NC(=O)CCCC(=O)C1CCC/C1=N\NC(=O)C(=O)NN (stereo unspecified) |  | > 100 µM |  | > 100 µM |  | > 100 µM |  | > 100 µM |  | > 100 µM |  | > 100 µM |  | > 100 µM |  | > 100 µM |  | > 100 µM |  | > 100 µM
8 | CCc1c[nH]c2ncnc(N3CC[C@@](N)(CNC(=O)c4ccc(F)cc4F)C3)c12 | 50.7 µM | > 100 µM | 48.3 µM | > 100 µM | 43.6 µM | > 100 µM | 28.6 µM | > 100 µM | 22.2 µM | > 83.9 µM | 46.4 µM | > 100 µM | 22 µM | > 100 µM | 26.2 µM | > 100 µM | 20.4 µM | > 100 µM | 7.16 µM | 35.9 µM
9 | C=C(C)CCC(C)N1CCC(N2CCC(C(=O)NCCc3ccccc3)CC2)CC1 (stereo unspecified) | 37.9 µM | > 100 µM | 9.9 µM | 34.2 µM | 16.7 µM | 57.6 µM | 10.1 µM | > 100 µM | 18.5 µM | 69.3 µM | 14.4 µM | 33 µM | 96.6 µM | > 100 µM | 11.9 µM | 26.1 µM | 10.5 µM | 23.8 µM | 14.8 µM | 43 µM
10 | CC(=O)c1cccc(NCn2nnc3ccccc32)c1 |  | > 100 µM |  | > 100 µM |  | > 100 µM |  | > 100 µM |  | > 100 µM |  | > 100 µM |  | > 100 µM |  | > 100 µM |  | > 100 µM |  | > 100 µM
11 | Cc1ccc2c(c1)ncn2-c1ncnc2c1CC(C)c1ccccc1N2C (stereo unspecified) | 0.304 µM | 14.5 µM | 0.0399 µM | 11.2 µM | 0.0984 µM | 12.5 µM | 0.149 µM | 1.82 µM | 11.6 µM | 24.3 µM | 0.086 µM | 13.9 µM | 1.21 µM | 18.7 µM | 0.0486 µM | 12.2 µM | 0.0896 µM | 11.6 µM | 0.0577 µM | 16.4 µM
12 | C=C[C@]1(C)C=C2C(=O)[C@@]3(O)OC[C@@]4(CCCC(C)(C)C43O)C2(O)C(O)C1 (stereo partly specified) | 17.2 µM | 31.5 µM | 2.8 µM | > 27.9 µM | 3.04 µM | 9.21 µM | 21 µM | > 100 µM | 1.56 µM | 3.03 µM | 13.6 µM | 28.1 µM | 5.43 µM | 12.1 µM | 21.6 µM | > 70.5 µM | 5.15 µM | 15.4 µM | 1.62 µM | 3.48 µM
13 | CCc1c2c(nc3cccc(N)c13)-c1cc3c(c(=O)n1C2)COC(=O)[C@]3(O)CC | 0.0349 µM and 0.02 µM | 1.39 µM and 11.4 µM | 0.00244 µM | > 100 µM |  | > 100 µM | 0.0932 µM | 0.56 µM |  | 0.748 µM | < 0.001 µM | 0.0348 µM and 0.03 µM | 0.00208 µM | 0.157 µM | 0.00441 µM |  | < 0.001 µM | 0.00491 µM | 0.0636 µM | 
14 | O=C(O)CCC1CCc2cccc3occ1c23 (stereo unspecified) |  | > 100 µM |  | > 100 µM |  | > 100 µM |  | > 100 µM |  | > 100 µM |  | > 100 µM |  | > 100 µM |  | > 100 µM |  | > 100 µM |  | > 100 µM
15 | O=c1[nH]cnc2c(C3OC(CO)C(O)C3O)scc12 (stereo unspecified) | 32.3 µM | > 100 µM | 31.5 µM | > 100 µM | 60 µM | > 100 µM | 26.9 µM | > 100 µM | 11.6 µM | > 100 µM | > 100 µM | > 100 µM | > 100 µM | > 100 µM | > 100 µM | > 100 µM | > 100 µM | > 100 µM | > 100 µM | > 100 µM
